US20190083497A1, “MODULATION OF BLOOD BRAIN BARRIER PERMEABILITY” (Cornell University, priority 2008, published 2019)

Legend:
blood brain barrier [1] = assay: Evans Blue dye extravasation across the blood brain barrier after single i.v. treatment; type: in vivo, mouse; settings: 100 μl 0.01 nM single i.v. one hour before dye, brain harvested four hours after dye
Description: The objective of this experiment was to determine if the blood brain barrier could be modulated by activation of adenosine receptors. NECA is a non-selective adenosine receptor agonist, with similar affinities for A1, A2a and A3 adenosine receptors and a low affinity for the A2b adenosine receptor. In order to determine if activation of adenosine receptors would induce extravasation of Evans Blue dye across the blood brain barrier (BBB), mice were treated with: NECA, a non-selective adenosine receptor agonist (n=5, 100 μl 0.01 nM); SCH58261, an A2a adenosine receptor specific antagonist (n=5, 1 mg/kg); pertussis toxin, an agent known to induce BBB leakiness and as such used as a positive control (n=7, 200 μl); and, PBS as a vehicle control (n=5, 100 μl). CD73^−/− mice, which lack the ability to produce extracellular adenosine, were also treated with NECA (n=4, 100 μl 0.01 nM). Treatments were administered as a single i.v. injection one hour prior to i.v. injection of 200 μl 1% Evans Blue dye ([…] total dye injected). Four hours after administration of Evans Blue, mice were anesthetized with a ketamine/xylazine mix and perfused via the left ventricle with ice cold PBS. […] Following extraction, the tissue/solvent mixture was centrifuged at 500×g for 30 minutes and 100 μl of supernatant was read on a BioTex spectrophotometer at 620 nm. Data is expressed as μg Evans Blue/ml DMF.

blood brain barrier [2] = assay: Evans Blue dye extravasation across the blood brain barrier in mice immunized for EAE; type: in vivo, mouse; settings: WT EAE mice; 100 μl 0.01 nM on day 1, 3, 5, 7, 9; dye on day 10, brain harvested six hours later; vs PBS control EAE mice
Description: In order to determine if activation of adenosine receptors would induce extravazation of Evans Blue dye across the blood brain barrier (BBB), mice were first treated on day one with NECA, a non-selective adenosine receptor agonist (n=2, 100 μl 0.01 nM); and, PBS as a vehicle control (n=2, 100 μl). On day 2 mice were then immunized with CFA-MOG35-55 and pertussis to induce EAE. Then NECA or PBS was administered every other day on day 3, day 5, day 7 and day 9. On day 10, mice were injected intravenously with 200 μl 1% Evans Blue dye ([…] total dye injected). Six hours after administration of Evans Blue, mice were anesthetized with a ketamine/xylazine mix and perfused via the left ventricle with ice cold PBS. Brains were harvested and homogenized in n,n-dimethylformamide (DMF) at 5 μl/mg (v:w). Tissue was incubated for 72 hours at room temperature in DMF to extract the dye. Following extraction, the tissue/solvent mixture was centrifuged at 500×g for 30 minutes and 100 μl of supernatant was read on a BioTex spectrophotometer at 620 nm.

hCMEC/D3 cells [3] = assay: Jurkat cell migration across hCMEC/D3 transwell in vitro BBB; type: cell-based, human; settings: hCMEC/D3 on Transwell; migrated cells counted after 24 hours
Excerpt: The blood brain barrier (BBB) is comprised of endothelial cells. During late stages of EAE, lymphocytes are known to cross the BBB. In order to determine if adenosine receptor stimulation of brain endothelial cells could promote lymphocyte migration through the BBB, an in vitro BBB was established. The human brain endothelial cell line hCMEC/D3 (Weksler et al., “Blood-brain Barrier-specific Properties of a Human Adult Brain Endothelial Cell Line,” J. Neurochem. 19(13):1872-4 (2005); Poller et al., “The Human Brain Endothelial Cell Line hCMEC/D3 as a Human Blood-brain Barrier Model for Drug Transport Studies,” J. Neurochem. 107(5):1358-1368 (2008), which are hereby incorporated by reference in their entirety) was obtained, which has been previously described as having BBB properties.
hCMEC/D3 cells were seeded onto Transwell and allowed to grow to confluencey. 2×10^6 Jurkat cells were added to the upper chamber with or without NECA (general adenosine receptor [AR] agonist), CCPA (A1AR agonist), CGS 21680 (A2AAR agonist), or DMSO vehicle. After 24 hours, migrated cells in the lower chamber were counted. Values are relative to the number of cells that migrate through non-HCMECD3 seeded transwells.

Z310 cells = assay: Jurkat cell migration across Z310 choroid plexus cell transwell; type: cell-based, murine; settings: Z310 cells on Transwell; migrated cells counted after 24 hours; n=1
Description: The choroid plexus (“CP”) controls lymphocyte migration into the CNS. The CP expresses the A1 and A2a adenosine receptors. EAE is prevented in mice when A2a adenosine receptor activity is blocked. EAE is enhanced when the A1 adenosine receptor is missing. It was hypothesized that A2a adenosine receptor activation promotes lymphocyte migration across the CP. Z310 cells are a murine choroid plexus cell line. To test the hypothesis, Transwell membranes were seeded with Z310 cells and allowed to grow to confluencey. 2×10^6 Jurkat cells were added to the upper chamber with or with out NECA (n=1, general AR agonist), CCPA (n=1, A1AR agonist), CGS 21680 (n=1, A2AAR agonist), or DMSO vehicle(n=1). After 24 hours, migrated cells in the lower chamber were counted. Values are relative to the number of cells that migrate through non-Z310 seeded transwells and the results are shown in FIG. 12.

hCMEC/D3 cells [4] = assay: cAMP levels in hCMEC/D3 cells (cAMP Screen kit); type: cell-based, human; settings: 15 minutes treatment, various concentrations
Description: Adenosine receptor activation regulates cAMP levels in cells. In order to determine the sensitivity of human brain endothelial cells to adenosine receptor induced cAMP regulation, human brain endothelial cells were cultured with adenosine receptor agonists at various concentrations, followed by cAMP level analysis, as shown in FIG. 13.
HCMECD3 cells were grown to confluencey on 24 well plates. As adenosine receptor (“AR”) stimulation is known to influence cAMP levels, cells were treated with or without various concentrations of NECA (general AR agonist), CCPA (A1AR agonist), CGS 21680 (A2AAR agonist), DMSO vehicle, or Forksolin (induces cAMP). After 15 minutes, lysis buffer was added and the cells were frozen at −80 C to stop the reaction. Duplicate samples were used for each condition. cAMP levels were assayed using a cAMP Screen kit (Applied Biosystems, Foster City, Calif.).

CCNC(=O)[C@H]1O[C@@H](n2cnc3c(N)ncnc32)[C@H](O)[C@@H]1O [NECA]
Evans Blue dye migration across the blood brain barrier (blood brain barrier [1]; CD73-/- mice, vs PBS control): almost five fold increase in dye migration vs. the PBS control
Evans Blue dye migration across the blood brain barrier (blood brain barrier [1]; WT mice, vs control mice): increase over control mice
BBB permeability (Evans Blue dye migration into the CNS) (blood brain barrier [2]): increase in BBB permeability over PBS control EAE mice
lymphocyte (Jurkat) migration across the in vitro BBB (hCMEC/D3 cells [3]): induced some migration
lymphocyte (Jurkat) migration across the CP (Z310 cells): induced migration
cAMP levels (hCMEC/D3 cells [4]): increased cAMP levels
